# Measured values reported in ChEMBL document CHEMBL3352178, “Antidepressant- and anxiolytic-like activity of 7-phenylpiperazinylalkyl-1,3-dimethyl-purine-2,6-dione derivatives with diversified 5-HT₁A receptor functional profile” (Bioorg Med Chem, 2015).
# Active and inactive are the calls of the source. No cut-off for these calls is given here.
# Legend:
# [1] = test system: Mus musculus; assay: Induction of hypothermia in mouse assessed as change in body temperature at 10 mg/kg, ip administered 30 mins before test and measured 90 mins post dose; assay type: functional, organism-based; parameters: dose 10 mg/kg
# [2] = test system: Mus musculus; assay: Induction of hypothermia in mouse assessed as change in body temperature at 5 mg/kg, ip administered 30 mins before test and measured 90 mins post dose; assay type: functional, organism-based; parameters: dose 5 mg/kg
# [3] = biological target: 5-hydroxytryptamine receptor 7 (Homo sapiens, UniProt P34969); assay: Displacement of [3H]]-5-CT from human cloned 5-HT7R expressed in HEK293 cells; assay type: cell-based
# [4] = test system: Mus musculus; assay: Antidepressant-like activity in mouse assessed as reduction in immobility time at 1.25 mg/kg, ip dosed 60 mins before test by forced swim test; assay type: functional; parameters: scale not given: the % may be the effect or the level left; conditions: route intraperitoneal
# [5] = biological target: T1, 5-hydroxytryptamine receptor 1A (Rattus norvegicus, UniProt P19327); assay: Displacement of [3H]-8-OH-DPAT from 5-HT1AR in rat hippocampus; assay type: tissue-based
# T1 sequence (P19327 whole entry): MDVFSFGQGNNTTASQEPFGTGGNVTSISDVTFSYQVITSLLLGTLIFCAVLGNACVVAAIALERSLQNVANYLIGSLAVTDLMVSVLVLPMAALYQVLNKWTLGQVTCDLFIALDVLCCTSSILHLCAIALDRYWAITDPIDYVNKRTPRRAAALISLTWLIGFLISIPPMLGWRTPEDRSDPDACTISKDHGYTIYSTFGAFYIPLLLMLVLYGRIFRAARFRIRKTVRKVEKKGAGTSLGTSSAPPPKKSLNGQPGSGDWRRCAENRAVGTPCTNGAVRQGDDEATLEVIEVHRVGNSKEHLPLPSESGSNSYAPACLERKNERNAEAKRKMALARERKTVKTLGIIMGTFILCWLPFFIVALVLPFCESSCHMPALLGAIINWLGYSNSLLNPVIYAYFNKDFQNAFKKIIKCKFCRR
# [6] = test system: Mus musculus; assay: Induction of hypothermia in mouse assessed as change in body temperature at 10 mg/kg, ip administered 30 mins before test and measured 30 mins post dose; assay type: functional, organism-based; parameters: dose 10 mg/kg
# [7] = test system: Mus musculus; assay: Induction of hypothermia in mouse assessed as change in body temperature at 10 mg/kg, ip administered 30 mins before test and measured 60 mins post dose; assay type: functional, organism-based; parameters: dose 10 mg/kg
# [8] = test system: Rattus norvegicus; assay: Induction of lower lip retraction in rat assessed as lower lip retraction scores at 10 mg/kg, ip dosed 15 mins before test; assay type: functional; conditions: route intraperitoneal
# [9] = test system: Rattus norvegicus; assay: Induction of lower lip retraction in rat assessed as lower lip retraction scores at 10 mg/kg, ip dosed 45 mins after 0.3 mg/kg, sc 5HT1A receptor antagonist WAY 100635; assay type: functional
# [10] = test system: Mus musculus; assay: Induction of hypothermia in mouse assessed as change in body temperature at 5 mg/kg, ip administered 30 mins before test and measured 120 mins post dose; assay type: functional, organism-based; parameters: dose 5 mg/kg
# [11] = test system: Mus musculus; assay: Induction of hypothermia in mouse assessed as change in body temperature at 10 mg/kg, ip administered 30 mins before test and measured 60 mins post dose in presence of 0.3 mg/kg, sc 5HT1A receptor antagonist WAY 100635; assay type: functional, organism-based
# [12] = test system: Mus musculus; assay: Induction of hypothermia in mouse assessed as change in body temperature at 10 mg/kg, ip administered 30 mins before test and measured 120 mins post dose; assay type: functional, organism-based; parameters: dose 10 mg/kg
# [13] = test system: Mus musculus; assay: Antidepressant-like activity in mouse assessed as reduction in immobility time at 0.625 mg/kg, ip dosed 60 mins before test by forced swim test; assay type: functional; parameters: scale not given: the % may be the effect or the level left; conditions: route intraperitoneal
# [14] = test system: Rattus norvegicus; assay: Inhibition of 8-OH-DPAT-induced lower lip retraction in rat assessed as lower lip retraction scores at 5 mg/kg, ip dosed 45 mins before 8-OH-DPAT; assay type: functional; conditions: route intraperitoneal
# [15] = biological target: 5-hydroxytryptamine receptor 2A (Rattus norvegicus, UniProt P14842); assay: Displacement of [3H]-ketanserin from 5-HT2AR in rat cortex
# [16] = biological target: 5-hydroxytryptamine receptor 6 (Homo sapiens, UniProt P50406); assay: Displacement of [3H]LSD from human cloned 5-HT6R expressed in HEK293 cells; assay type: cell-based
# [17] = test system: Mus musculus; assay: Antidepressant-like activity in mouse assessed as reduction in immobility time at 0.625 mg/kg, ip dosed 60 mins before test in presence of 0.3 mg/kg, sc 5HT1A receptor antagonist WAY 100635 by forced swim test; assay type: functional, organism-based
# [18] = test system: Mus musculus; assay: Induction of hypothermia in mouse assessed as change in body temperature at 10 mg/kg, ip administered 30 mins before test and measured 30 mins post dose in presence of 0.3 mg/kg, sc 5HT1A receptor antagonist WAY 100635; assay type: functional, organism-based
# [19] = test system: Rattus norvegicus; assay: Induction of lower lip retraction in rat assessed as lower lip retraction scores at 5 mg/kg, ip dosed 15 mins before test; assay type: functional; conditions: route intraperitoneal
# [20] = biological target: D(2) dopamine receptor (Rattus norvegicus, UniProt P61169); assay: Displacement of [3H]-spiperone from dopamine D2 receptor in rat striatum
# [21] = test system: Mus musculus; assay: Induction of hypothermia in mouse assessed as change in body temperature at 5 mg/kg, ip administered 30 mins before test and measured 60 mins post dose; assay type: functional, organism-based; parameters: dose 5 mg/kg
# [22] = test system: Mus musculus; assay: Effect on spontaneous locomotor activity in ip dosed mouse during 2 to 6 mins; assay type: ADME, organism-based; conditions: in vivo
# [23] = test system: Mus musculus; assay: Induction of hypothermia in mouse assessed as change in body temperature at 5 mg/kg, ip administered 30 mins before test and measured 30 mins post dose; assay type: functional, organism-based; parameters: dose 5 mg/kg
# 5-hydroxytryptamine receptor 6, sequence (P50406 whole entry): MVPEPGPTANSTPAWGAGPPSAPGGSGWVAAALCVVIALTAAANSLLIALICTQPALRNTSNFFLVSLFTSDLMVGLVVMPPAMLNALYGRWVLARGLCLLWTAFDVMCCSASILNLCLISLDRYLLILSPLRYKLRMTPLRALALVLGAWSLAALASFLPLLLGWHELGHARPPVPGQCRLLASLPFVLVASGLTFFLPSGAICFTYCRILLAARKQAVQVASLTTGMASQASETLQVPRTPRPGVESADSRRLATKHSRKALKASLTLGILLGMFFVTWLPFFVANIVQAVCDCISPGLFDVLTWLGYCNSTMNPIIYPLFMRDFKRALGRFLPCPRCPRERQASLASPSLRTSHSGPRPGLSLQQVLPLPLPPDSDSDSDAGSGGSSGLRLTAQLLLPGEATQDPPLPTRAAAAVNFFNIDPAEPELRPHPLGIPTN
# 5-hydroxytryptamine receptor 2A, sequence (P14842 whole entry): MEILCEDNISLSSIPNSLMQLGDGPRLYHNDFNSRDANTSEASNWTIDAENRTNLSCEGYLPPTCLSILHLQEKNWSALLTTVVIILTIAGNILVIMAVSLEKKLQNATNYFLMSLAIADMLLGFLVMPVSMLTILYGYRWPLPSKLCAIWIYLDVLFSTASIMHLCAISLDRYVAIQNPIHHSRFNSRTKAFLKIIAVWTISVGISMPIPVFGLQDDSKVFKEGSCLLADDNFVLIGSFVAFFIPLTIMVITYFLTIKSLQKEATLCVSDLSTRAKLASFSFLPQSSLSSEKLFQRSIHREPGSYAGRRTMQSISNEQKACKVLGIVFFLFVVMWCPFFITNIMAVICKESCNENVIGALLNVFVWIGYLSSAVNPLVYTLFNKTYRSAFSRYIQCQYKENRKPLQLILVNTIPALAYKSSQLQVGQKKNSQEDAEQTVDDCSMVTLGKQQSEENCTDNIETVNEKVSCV
# 5-hydroxytryptamine receptor 7, sequence (P34969 whole entry): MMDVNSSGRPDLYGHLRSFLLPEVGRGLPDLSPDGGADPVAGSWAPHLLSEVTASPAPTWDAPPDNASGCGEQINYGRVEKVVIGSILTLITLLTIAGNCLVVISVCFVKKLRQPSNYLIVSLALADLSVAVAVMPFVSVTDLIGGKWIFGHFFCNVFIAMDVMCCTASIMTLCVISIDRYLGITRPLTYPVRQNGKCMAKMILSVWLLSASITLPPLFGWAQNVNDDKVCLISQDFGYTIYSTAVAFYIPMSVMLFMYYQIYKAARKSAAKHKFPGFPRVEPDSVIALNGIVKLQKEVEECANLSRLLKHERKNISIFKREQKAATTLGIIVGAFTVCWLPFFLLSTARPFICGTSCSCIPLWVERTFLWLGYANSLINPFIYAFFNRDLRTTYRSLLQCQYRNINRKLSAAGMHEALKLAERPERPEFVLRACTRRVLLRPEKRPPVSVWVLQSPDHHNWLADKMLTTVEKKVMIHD
# D(2) dopamine receptor, sequence (P61169 whole entry): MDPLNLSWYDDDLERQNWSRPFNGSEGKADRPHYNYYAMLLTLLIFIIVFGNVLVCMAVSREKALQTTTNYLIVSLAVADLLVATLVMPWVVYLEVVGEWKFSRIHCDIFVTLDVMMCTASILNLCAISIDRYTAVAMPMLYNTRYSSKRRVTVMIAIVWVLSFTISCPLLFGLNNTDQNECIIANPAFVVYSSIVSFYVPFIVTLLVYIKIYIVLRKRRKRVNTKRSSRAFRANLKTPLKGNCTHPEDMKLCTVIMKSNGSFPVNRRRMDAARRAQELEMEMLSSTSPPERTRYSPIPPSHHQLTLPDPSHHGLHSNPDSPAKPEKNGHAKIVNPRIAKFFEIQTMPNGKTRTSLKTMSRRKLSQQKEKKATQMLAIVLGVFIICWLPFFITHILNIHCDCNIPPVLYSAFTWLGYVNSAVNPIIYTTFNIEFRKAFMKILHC
structure (smiles),measurement,setting,value
COc1ccccc1N1CCN(CCCCCn2cnc3c2c(=O)n(C)c(=O)n3C)CC1.Cl,deltaT,[1],-0.9 °C
same,deltaT,[2],0.3 °C
same,Ki,[3],294 nM
same,Activity,[4],35%
same,Ki,[5],1 nM
same,deltaT,[6],-2.1 °C
same,deltaT,[7],-1 °C
same,Activity,[8],0.8
same,Activity,[9],0.1
same,deltaT,[10],0.3 °C
same,deltaT,[11],-1.6 °C
same,deltaT,[12],-0.4 °C
same,Activity,[13],30%
same,Activity,[14],2.1
same,Ki,[15],598 nM
same,Ki,[16],8990 nM
same,Activity,[17],inactive
same,deltaT,[18],-1.8 °C
same,Activity,[19],0.6
same,Ki,[20],33 nM
same,deltaT,[21],-0.2 °C
same,Activity,[22],Non-toxic
same,deltaT,[23],-1 °C
